Tested on: Hep-3B cells
Experiment: Cellular assay: EPO secretion in Hep-3B cells
Format: cell-based, human
Set-up: EPO secretion, % of control compound: dose or concentration left out as unconfirmed
Conditions: 24 h, compound at 100 μM (10 μM or 100 μM), EPO secretion as percentage of control compound 7-[(4-Chloro-phenyl)-(5-methyl-isoxazol-3-ylamino)-methyl]-quinolin-8-ol

SMILES | Cellular % EPO Stimulation [%]
O=C(O)c1cnn(-c2nc3cc(-c4ccc(O)cc4)ccc3[nH]2)c1 [Example 23, 1-[5-(4-Hydroxy-phenyl)-1H-benzoimidazol-2-yl]-1H-pyrazole-4-carboxylic Acid] | 6.49
O=C(O)c1cnn(-c2nc3cc(-c4cccc(OCc5cccc(Cl)c5)c4)ccc3[nH]2)c1 [Example 12, 1-{5-[3-(3-Chloro-benzyloxy)-phenyl]-1H-benzoimidazol-2-yl}-1H-pyrazole-4-carboxylic Acid] | 8.76
O=C(O)c1cnn(-c2nc3cc(Br)ccc3[nH]2)c1 [Example 6, 1-(5-Bromo-1H-benzoimidazol-2-yl)-1H-pyrazole-4-carboxylic Acid] | 9.91
Cc1cc2nc(-n3cc(C(=O)O)cn3)[nH]c2cc1C [Example 5, 1-(5,6-Dimethyl-1H-benzoimidazol-2-yl)-1H-pyrazole-4-carboxylic Acid] | 2.1
O=C(O)c1cnn(-c2nc3ccccc3[nH]2)c1 [Example 1, 1-(1H-Benzoimidazol-2-yl)-1H-pyrazole-4-carboxylic Acid] | 7.1
O=C(O)c1cnn(-c2nc3cc(-c4ccc(Cl)c(Cl)c4)ccc3[nH]2)c1 [Example 18, 1-[5-(3,4-Dichloro-phenyl)-1H-benzoimidazol-2-yl]-1H-pyrazole-4-carboxylic Acid] | 15.3
O=C(O)c1cnn(-c2nc3c(Cl)cc(C(F)(F)F)cc3[nH]2)c1 [Example 8, 1-(4-Chloro-6-trifluoromethyl-1H-benzoimidazol-2-yl)-1H-pyrazole-4-carboxylic Acid] | 20.97
O=C(O)c1cnn(-c2nc3cc(-c4ccc(OCc5ccccc5)cc4)ccc3[nH]2)c1 [Example 16, 1-[5-(4-Benzyloxy-phenyl)-1H-benzoimidazol-2-yl]-1H-pyrazole-4-carboxylic Acid] | 6.97
Cc1ccc2[nH]c(-n3cc(C(=O)O)cn3)nc2c1C [Example 10, 1-(4,5-Dimethyl-1H-benzoimidazol-2-yl)-1H-pyrazole-4-carboxylic Acid] | 10.7
O=C(O)c1cnn(-c2nc3cc(Cl)ccc3[nH]2)c1 [Example 25, 1-(5-Chloro-1H-benzoimidazol-2-yl)-1H-pyrazole-4-carboxylic Acid] | 71.87
O=C(O)c1cnn(-c2nc3cc(-c4cccc(C(F)(F)F)c4)ccc3[nH]2)c1 [Example 17, 1-[5-(3-Trifluoromethyl-phenyl)-1H-benzoimidazol-2-yl]-1H-pyrazole-4-carboxylic Acid] | 5.8
Cc1nn(-c2nc3cc(Br)ccc3[nH]2)c(C)c1C(=O)O [Example 21, 1-(5-Bromo-1H-benzoimidazol-2-yl)-3,5-dimethyl-1H-pyrazole-4-carboxylic Acid] | 7.24
COc1ccc2[nH]c(-n3cc(C(=O)O)cn3)nc2c1 [Example 7, 1-(5-Methoxy-1H-benzoimidazol-2-yl)-1H-pyrazole-4-carboxylic Acid] | 16.8
Cc1c(Br)cc2nc(-n3cc(C(=O)O)cn3)[nH]c2c1C [Example 26, 1-(5-Bromo-6,7-dimethyl-1H-benzoimidazol-2-yl)-1H-pyrazole-4-carboxylic Acid] | 11.9
O=C(O)c1cnn(-c2nc3cc(-c4cccc(OCc5ccccc5)c4)ccc3[nH]2)c1 [Example 15, 1-[5-(3-Benzyloxy-phenyl)-1H-benzoimidazol-2-yl]-1H-pyrazole-4-carboxylic Acid] | 10.77
O=C(O)c1cnn(-c2nc3cc(-c4cccc(O)c4)ccc3[nH]2)c1 [Example 24, 1-[5-(3-Hydroxy-phenyl)-1H-benzoimidazol-2-yl]-1H-pyrazole-4-carboxylic Acid] | 11.15
O=C(O)c1cnn(-c2nc3cc(OC(F)(F)F)ccc3[nH]2)c1 [Example 11, 1-(5-Trifluoromethoxy-1H-benzoimidazol-2-yl)-1H-pyrazole-4-carboxylic Acid] | 123.68
COc1cc2nc(-n3cc(C(=O)O)cn3)[nH]c2cc1OC [Example 9, 1-(5,6-Dimethoxy-1H-benzoimidazol-2-yl)-1H-pyrazole-4-carboxylic Acid] | 4.26
O=C(O)c1cn(-c2nc3cc(Br)ccc3[nH]2)nc1C(F)(F)F [Example 19, 1-(5-Bromo-1H-benzoimidazol-2-yl)-3-trifluoromethyl-1H-pyrazole-4-carboxylic Acid] | 20.52
O=C(O)c1cnn(-c2nc3cc(-c4cccc(OCc5ccccc5Cl)c4)ccc3[nH]2)c1 [Example 13, 1-{5-[3-(2-Chloro-benzyloxy)-phenyl]-1H-benzoimidazol-2-yl}-1H-pyrazole-4-carboxylic Acid] | 18

Same assay, conditions: Homo sapiens, Hep3B, 24 h, EPO secretion as percentage of control compound 7-[(4-Chloro-phenyl)-(5-methyl-isoxazol-3-ylamino)-methyl]-quinolin-8-ol, read-out: Cellular % EPO Stimulation

SMILES | EPO secretion, % of control compound [%]
O=C(O)c1cnn(-c2nc3cc(C(F)(F)F)c(F)cc3[nH]2)c1 [Example 129, 1-(6-Fluoro-5-trifluoromethyl-1H-benzoimidazol-2-yl)-1H-pyrazole-4-carboxylic Acid] | 70.8
O=C(O)c1cnn(-c2nc3cc(OC(F)(F)F)cc(Br)c3[nH]2)c1 [Example 29, 1-(7-Bromo-5-trifluoromethoxy-1H-benzoimidazol-2-yl)-1H-pyrazole-4-carboxylic Acid] | 57.5
O=C(O)c1cnn(-c2nc3cc(-c4cccc(OCc5ccc(Cl)cc5)c4)ccc3[nH]2)c1 [Example 14, 1-{5-[3-(4-Chloro-benzyloxy)-phenyl]-1H-benzoimidazol-2-yl}-1H-pyrazole-4-carboxylic Acid] | 20.1
CCCSc1cc2nc(-n3cc(C(=O)O)cn3)[nH]c2cc1F [Example 152, 1-(6-Fluoro-5-propylsulfanyl-1H-benzoimidazol-2-yl)-1H-pyrazole-4-carboxylic Acid] | 91.4
O=C(O)c1cnn(-c2nc3cc(C(F)(F)F)ccc3[nH]2)c1 [Example 3, 1-(5-Trifluoromethyl-1H-benzoimidazol-2-yl)-1H-pyrazole-4-carboxylic Acid] | 110
O=C(O)c1cnn(-c2nc3cc(C(F)(F)F)c(Cl)cc3[nH]2)c1 [Example 30, 1-(6-Chloro-5-trifluoromethyl-1H-benzoimidazol-2-yl)-1H-pyrazole-4-carboxylic Acid] | 129

Biological target: human PHD2181-417 (Homo sapiens (Human), UniProt Q9GZT9)
Experiment: PHD2 enzyme activity assay ([14C]-succinic acid production);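 note: reaction ran 10 min with compound in Tris pH 7.5 buffer with catalase, DTT and ascorbate, labelled succinate freed of leftover 2-oxoglutarate by DNP precipitation, then beta counted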
Format: biochemical
Conditions: PHD2181-417 polypeptide, HIF-1α peptide 10 μM, [5-14C]-2-oxoglutaric acid; 30 min pre-incubation; tested 10 μM to 3 nM

human PHD2181-417, sequence (Q9GZT9 181-417): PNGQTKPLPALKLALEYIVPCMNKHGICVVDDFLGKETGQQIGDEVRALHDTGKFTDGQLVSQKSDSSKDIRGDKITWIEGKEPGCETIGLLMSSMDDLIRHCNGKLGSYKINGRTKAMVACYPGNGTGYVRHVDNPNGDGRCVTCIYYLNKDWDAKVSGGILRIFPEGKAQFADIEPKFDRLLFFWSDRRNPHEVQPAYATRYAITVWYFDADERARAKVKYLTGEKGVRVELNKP

Enzyme pIC50 | SMILES
7 | CCCSc1cc2[nH]c(-n3cc(C(=O)O)cn3)nc2cc1OC(F)(F)F [Example 81, 1-(6-Propylsulfanyl-5-trifluoromethoxy-1H-benzoimidazol-2-yl)-1H-pyrazole-4-carboxylic Acid]
6.7 | O=C(O)c1cnn(-c2nc3cc(SCc4ccc(C(F)(F)F)cc4C(F)(F)F)c(Cl)cc3[nH]2)c1 [Example 171, 1-[5-(2,4-Bis-trifluoromethyl-benzylsulfanyl)-6-chloro-1H-benzoimidazol-2-yl]-1H-pyrazole-4-carboxylic Acid]
7.7 | N#Cc1ccccc1-c1ccc(CS(=O)(=O)c2cc3nc(-n4cc(C(=O)O)cn4)[nH]c3cc2Cl)cc1 [Example 181, 1-[6-Chloro-5-(2′-cyano-biphenyl-4-ylmethanesulfonyl)-1H-benzoimidazol-2-yl]-1H-pyrazole-4-carboxylic Acid]
7.5 | CCCS(=O)(=O)c1cc2[nH]c(-n3cc(C(=O)O)cn3)nc2cc1C(F)(F)F [Example 104, 1-[6-(Propane-1-sulfonyl)-5-trifluoromethyl-1H-benzoimidazol-2-yl]-1H-pyrazole-4-carboxylic Acid]
7.4 | CC(C)S(=O)(=O)c1cc2[nH]c(-n3cc(C(=O)O)cn3)nc2cc1OC(F)(F)F [Example 105, 1-[6-(Propane-2-sulfonyl)-5-trifluoromethoxy-1H-benzoimidazol-2-yl]-1H-pyrazole-4-carboxylic Acid]
7.3 | CC(C)S(=O)(=O)c1cc2nc(-n3cc(C(=O)O)cn3)[nH]c2cc1F [Example 158, 1-(6-Fluoro-5-isopropylsulfonyl-1H-benzoimidazol-2-yl)-1H-pyrazole-4-carboxylic Acid]
7.2 | CC(C)Sc1cc2[nH]c(-n3cc(C(=O)O)cn3)nc2cc1C(F)(F)F [Example 73, 1-(6-Isopropylsulfanyl-5-trifluoromethyl-1H-benzoimidazol-2-yl)-1H-pyrazole-4-carboxylic Acid]
7.6 | O=C(O)c1cnn(-c2nc3cc(S(=O)(=O)Cc4ccc(C(F)(F)F)cc4C(F)(F)F)c(Cl)cc3[nH]2)c1 [Example 180, 1-[5-(2,4-Bis-trifluoromethyl-phenylmethanesulfonyl)-6-chloro-1H-benzoimidazol-2-yl]-1H-pyrazole-4-carboxylic Acid]
7.4 | CC(C)S(=O)(=O)c1cc2[nH]c(-n3cc(C(=O)O)cn3)nc2cc1C(F)(F)F [Example 103, 1-[6-(Propane-2-sulfonyl)-5-trifluoromethyl-1H-benzoimidazol-2-yl]-1H-pyrazole-4-carboxylic Acid]
7.5 | N#Cc1ccccc1-c1ccc(CSc2cc3nc(-n4cc(C(=O)O)cn4)[nH]c3cc2Cl)cc1 [Example 172, 1-[6-Chloro-5-(2′-cyano-biphenyl-4-ylmethylsulfanyl)-1H-benzoimidazol-2-yl]-1H-pyrazole-4-carboxylic Acid]

Same assay, conditions: PHD2181-417 polypeptide, HIF-1α peptide 10 μM, [5-14C]-2-oxoglutaric acid; 30 min pre-incubation; tested 10 μM to 3 nM; read-out: Enzyme pIC50 (converted)

IC50 [nM] | SMILES
200 | Cc1ccc(CSc2cc3nc(-n4cc(C(=O)O)cn4)[nH]c3cc2Cl)cc1 [Example 169, 1-[6-Chloro-5-(4-methyl-benzylsulfanyl)-1H-benzoimidazol-2-yl]-1H-pyrazole-4-carboxylic Acid]
